pEC50: −log10 of the molar value. “Also recorded” adds a separate entry of the source. Like-named read-outs stand apart in the source and are kept apart here.
Key:
[1] = target: T1, TAS2R14 (Homo sapiens, UniProt Q9NYV8); assay: In vitro calcium imaging assay on cloned TAS2R14 in transfected HEK293T cells; assay type: cell-based; conditions: for TAS2R14 screening result: single dose, qualitative
T1 construct: expressed in transfected cells; host or cells: HEK293T
T1 sequence (Q9NYV8 1-317): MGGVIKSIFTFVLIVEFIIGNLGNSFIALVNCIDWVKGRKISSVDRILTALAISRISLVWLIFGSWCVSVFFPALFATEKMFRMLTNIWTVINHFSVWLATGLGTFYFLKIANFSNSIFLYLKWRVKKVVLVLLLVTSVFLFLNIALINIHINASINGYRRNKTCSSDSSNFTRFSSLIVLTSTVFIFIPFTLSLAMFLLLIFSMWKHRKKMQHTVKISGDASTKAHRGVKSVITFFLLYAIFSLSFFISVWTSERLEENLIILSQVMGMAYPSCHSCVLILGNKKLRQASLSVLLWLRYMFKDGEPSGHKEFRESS
Excerpt: (§1) Pure phytochemicals were submitted to in vitro assays with a platform of twenty cloned receptors of the bitter taste TAS2R family and four receptors of the TRP family related to the perception of taste and somatosensory sensations. All experiments have been repeated three times, each time with four replicates. […] For simplicity, only those bitter taste receptors having reproducible positive assay, namely TASR10, 14 and 49, are reported (Table 1).
(§2) For those compounds showing activity on one or more receptor(s), the concentration/response curves were plotted and the EC50 calculated.
(§3) For the biological tests, several compounds were purchased as references from different suppliers (Sigma Aldrich, ChromaDex, Irvine, CA, USA, and Tocris Bioscience, Bristol, UK) and dissolved in assay buffer (130 mM NaCl, 5 mM KCl, 1 mM MgCl2, 2 mM CaCl2, 5 mM NaHCO3 and 20 mM HEPES, pH 7.4) or in a mixture of assay buffer and DMSO, never exceeding a final DMSO concentration of 0.5% (v/v) to avoid toxic effects and possible artefacts on transfected cells.
(§4) All human TAS2R and G15Gi1 cDNAs were produced as reported in Bassoli et al. cDNAs for human TRPA1-M5-M8-V1-V4 were cloned into a pcDNA6 expression vector (Invitrogen-Thermo Fisher, Waltham, MA, USA).
(§5) All experiments were performed using HEK293T cells (ATCC).
(§6) For the bitter platform experiments, cells were cultured, transfected and analyzed as previously described.
(§7) For the bitter platform experiments, data analyses were performed as previously described.
(§8) For the calculation of concentration-response curves, responses were calculated as the difference between maximal and minimal relative fluorescence unit (RFU) values in a selected time window (11–60 s) and were normalized to the basal well fluorescence (Time Point 1, before compound injection) in order to compensate for differences in cell density (∆F/F0). All of the experiments have been repeated three times, each time with four replicates. All of the results are averages of at least four replicates. Raw data are available in Supplementary Material, Figures S3–S6.

[2] = target: T2, TAS2R49 (Homo sapiens, UniProt P59543); assay: In vitro calcium imaging assay on cloned TAS2R49 in transfected HEK293T cells; assay type: cell-based; conditions: for TAS2R49 screening result: single dose, qualitative
T2 construct: expressed in transfected cells; host or cells: HEK293T
T2 sequence (P59543 1-309): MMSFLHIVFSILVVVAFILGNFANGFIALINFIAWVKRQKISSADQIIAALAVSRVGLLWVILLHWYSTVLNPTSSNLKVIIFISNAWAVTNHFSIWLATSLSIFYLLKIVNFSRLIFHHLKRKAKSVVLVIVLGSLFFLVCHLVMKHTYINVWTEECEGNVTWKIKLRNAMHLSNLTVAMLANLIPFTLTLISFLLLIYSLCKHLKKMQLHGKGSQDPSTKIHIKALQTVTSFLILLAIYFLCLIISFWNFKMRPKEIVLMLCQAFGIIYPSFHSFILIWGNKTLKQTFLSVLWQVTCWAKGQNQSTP
Excerpt: as §1, §2, §3, §4, §5, §6, §7, §8

[3] = target: T3, TRPA1 (Homo sapiens, UniProt O75762); assay: In vitro Fluo8-NW calcium assay (FLIPR) on HEK293T cells stably overexpressing TRPA1; assay type: cell-based; conditions: for TRPA1 screening result: single dose, qualitative
T3 construct: expressed in transfected cells
Excerpt: Pure phytochemicals were submitted to in vitro assays with a platform of twenty cloned receptors of the bitter taste TAS2R family and four receptors of the TRP family related to the perception of taste and somatosensory sensations. All experiments have been repeated three times, each time with four replicates.
as §2, §3, §4, §5
(§9) For TRP platform experiments, cells were cultured in MEM/EBSS medium (ECB2071L EuroClone, Milan, Italy) plus 10% (v/v) fetal bovine serum (FBS) (26400-044 Gibco, Karlsruhe, Germany) and 1% (v/v) Pen/Strep 10K/10K stock (17-602E Lonza, Basel, Switzerland). Stable cell lines were generated overexpressing each TRP channel, and clones were selected with 500 µg/mL of G418 (ant-gn-5 Invivogen, Karlsruhe, Germany). To analyze TRP receptor responses, cells were plated at a concentration of 20,000 cells/well in 384-well plates (GR-4330 Twin Helix srl, Milan, Italy). Cellular responses were measured 24 h after seeding.
(§10) For TRPA1-M8-V1-V4 experiments, a solution of Fluo8-NW calcium-sensitive dye (36316 AAT BioQuest, Sunnyvale, CA, USA) was prepared using the assaybuffer and diluting the kit components 1:2 according to the manufacturer’s instructions. Twenty-four hours after seeding, cells were incubated one hour at RT, loaded with 40 µL of Fluo8-NW solution for each well and incubated again for one hour at RT before data acquisition.
(§11) For TRPM5 experiments, cells were loaded 24 h after seeding with a Membrane Potential Dye (R8034 MDC) solution in assay buffer according to the manufacturer’s instructions and incubated at 37 °C for 1 h before acquisition. All experiments were performed using a fluorometric imaging plate reader (FLIPR^TETRA, Molecular Devices equipped with ICCD Camera from Stanford Photonics, INC, (Palo Alto, CA, USA) and kinetics were visualized with Molecular Devices’ Screenworks 3.0 (Sunnyvale, CA, USA).
as §8

[4] = target: T4, TRPV1 (Homo sapiens, UniProt Q8NER1); assay: In vitro Fluo8-NW calcium assay (FLIPR) on HEK293T cells stably overexpressing TRPV1; assay type: cell-based; conditions: for TRPV1 screening result: single dose, qualitative
T4 construct: expressed in transfected cells
Excerpt: as §1, §3, §4, §5, §9, §10, §11, §8

[5] = test system: twenty TAS2R bitter taste receptors; assay: In vitro screening on the platform of twenty cloned TAS2R bitter taste receptors; assay type: cell-based, human; conditions: at the tested concentration
Excerpt: as §1, §3, §4, §5, §6, §7, §8

[6] = concentration/response curve, values with ≥ estimated, curve did not saturate, read-out: EC50 TAS2R14

T4 sequence (Q8NER1 whole entry): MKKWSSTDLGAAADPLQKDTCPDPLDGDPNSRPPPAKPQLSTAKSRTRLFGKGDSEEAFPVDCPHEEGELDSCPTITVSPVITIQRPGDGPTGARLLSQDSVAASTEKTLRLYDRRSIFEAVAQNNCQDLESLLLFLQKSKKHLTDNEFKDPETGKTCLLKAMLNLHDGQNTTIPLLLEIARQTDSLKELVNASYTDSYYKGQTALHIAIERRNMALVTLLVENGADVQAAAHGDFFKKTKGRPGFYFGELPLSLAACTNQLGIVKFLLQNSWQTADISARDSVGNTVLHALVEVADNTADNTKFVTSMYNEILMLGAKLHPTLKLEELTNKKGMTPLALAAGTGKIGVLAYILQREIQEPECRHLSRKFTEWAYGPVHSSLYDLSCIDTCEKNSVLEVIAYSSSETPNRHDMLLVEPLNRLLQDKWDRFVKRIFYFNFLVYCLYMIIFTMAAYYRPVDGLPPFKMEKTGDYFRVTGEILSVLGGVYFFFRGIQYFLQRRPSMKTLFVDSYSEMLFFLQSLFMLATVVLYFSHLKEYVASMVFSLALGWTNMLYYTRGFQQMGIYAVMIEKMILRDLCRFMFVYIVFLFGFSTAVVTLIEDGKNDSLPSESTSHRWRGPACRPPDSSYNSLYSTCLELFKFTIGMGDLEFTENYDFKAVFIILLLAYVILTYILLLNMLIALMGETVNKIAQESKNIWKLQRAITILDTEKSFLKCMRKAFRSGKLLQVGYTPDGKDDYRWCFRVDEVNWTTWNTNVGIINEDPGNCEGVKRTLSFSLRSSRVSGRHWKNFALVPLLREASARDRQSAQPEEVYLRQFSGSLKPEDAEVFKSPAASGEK
T3 sequence (O75762 whole entry): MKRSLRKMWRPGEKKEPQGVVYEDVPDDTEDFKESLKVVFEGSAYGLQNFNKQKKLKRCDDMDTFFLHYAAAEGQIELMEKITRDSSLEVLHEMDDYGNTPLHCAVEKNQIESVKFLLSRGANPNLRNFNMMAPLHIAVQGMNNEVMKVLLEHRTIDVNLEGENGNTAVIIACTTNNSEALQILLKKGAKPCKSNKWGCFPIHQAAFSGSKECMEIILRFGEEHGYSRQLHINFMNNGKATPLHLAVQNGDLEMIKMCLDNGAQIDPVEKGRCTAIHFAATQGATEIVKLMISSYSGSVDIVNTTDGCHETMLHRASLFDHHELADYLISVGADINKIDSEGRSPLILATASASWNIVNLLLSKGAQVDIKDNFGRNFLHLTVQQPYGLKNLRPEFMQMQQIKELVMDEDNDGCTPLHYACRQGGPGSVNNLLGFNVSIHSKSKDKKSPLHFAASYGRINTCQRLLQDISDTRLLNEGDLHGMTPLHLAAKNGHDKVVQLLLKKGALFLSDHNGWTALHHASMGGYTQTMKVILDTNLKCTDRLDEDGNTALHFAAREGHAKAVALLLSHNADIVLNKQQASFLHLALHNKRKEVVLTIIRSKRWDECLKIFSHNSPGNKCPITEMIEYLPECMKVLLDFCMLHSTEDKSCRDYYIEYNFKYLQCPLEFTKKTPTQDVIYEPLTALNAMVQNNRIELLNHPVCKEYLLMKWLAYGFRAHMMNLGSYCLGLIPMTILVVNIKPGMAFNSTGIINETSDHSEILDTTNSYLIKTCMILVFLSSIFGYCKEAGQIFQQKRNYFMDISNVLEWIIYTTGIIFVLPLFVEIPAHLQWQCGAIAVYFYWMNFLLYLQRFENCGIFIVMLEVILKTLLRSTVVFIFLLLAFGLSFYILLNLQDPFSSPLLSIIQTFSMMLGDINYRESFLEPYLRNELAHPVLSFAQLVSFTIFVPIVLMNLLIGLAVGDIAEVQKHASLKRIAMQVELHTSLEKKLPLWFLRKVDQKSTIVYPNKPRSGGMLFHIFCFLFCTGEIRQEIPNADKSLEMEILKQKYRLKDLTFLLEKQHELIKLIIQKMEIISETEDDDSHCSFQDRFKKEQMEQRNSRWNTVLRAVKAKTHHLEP

Structure (SMILES): COc1c2occc2cc2ccc(=O)oc12 [Compound 4, xanthotoxin]
- pEC50 [1]: ≤ 4.97
- TAS2R14 screening result [1]: +
- Activity on TAS2R49 (in words) [2]: responded; also recorded: able to activate
- pEC50 [2]: 4.92
- TAS2R49 screening result [2]: ++
- Activity on TRPA1 (in words) [3]: agonists
- pEC50 ([3]; concentration/response curve, values with ≥ estimated, n.d. = non detectable, read-out: EC50 TRPA1): ≤ 4.71
- TRPA1 screening result [3]: +
- TRPV1 screening result [4]: −

Structure (SMILES): C=CC(C)(C)c1cc2cc3c(cc2oc1=O)OC(C(C)(C)OC(C)=O)C3 (stereo not drawn) [Compound 2, rutamarin]
- TAS2R14 screening result [1]: −
- TAS2R49 screening result [2]: −
- Activity on TRPA1 (in words) [3]: did not activate
- TRPA1 screening result [3]: −
- Activity on TRPV1 (in words) [4]: agonist
- TRPV1 screening result [4]: +

Structure (SMILES): CCCCCCCCCC(C)=O [Compound 9, 2-undecanone]
- TAS2R14 screening result [1]: −
- TAS2R49 screening result [2]: −
- TRPA1 screening result [3]: −
- TRPV1 screening result [4]: −
- Response on the twenty TAS2R receptors (in words) [5]: inactive

Structure (SMILES): C[C@@H]1O[C@@H](OC[C@H]2O[C@@H](Oc3c(-c4ccc(O)c(O)c4)oc4cc(O)cc(O)c4c3=O)[C@H](O)[C@@H](O)[C@@H]2O)[C@H](O)[C@H](O)[C@H]1O [Compound 1, rutin]
- TAS2R14 screening result [1]: −
- TAS2R49 screening result [2]: −
- TRPA1 screening result [3]: −
- TRPV1 screening result [4]: −
- Response on the twenty TAS2R receptors (in words) [5]: inactive

Structure (SMILES): COc1c2ccoc2cc2oc(=O)ccc12 [Compound 3, bergapten]
- Activity on TAS2R14 (in words) [1]: inactive
- TAS2R14 screening result [1]: −
- TAS2R49 screening result [2]: −
- TRPA1 screening result [3]: −
- TRPV1 screening result [4]: −

Structure (SMILES): COc1ccc2c(OC)c3ccoc3nc2c1OC [Compound 8, skimmianine]
- Activity on TAS2R14 (in words) [1]: selectively activate
- pEC50 [1, 6]: ≤ 4.80
- TAS2R14 screening result [1]: +
- TAS2R49 screening result [2]: −
- TRPA1 screening result [3]: −
- TRPV1 screening result [4]: −

Structure (SMILES): COc1cc2nc3occc3c(OC)c2cc1OC [Compound 7, kokusaginin]
- TAS2R14 screening result [1]: −
- TAS2R49 screening result [2]: −
- TRPA1 screening result [3]: −
- TRPV1 screening result [4]: −
- Response on the twenty TAS2R receptors (in words) [5]: did not respond

Structure (SMILES): COc1c2ccoc2c(OC)c2oc(=O)ccc12 [Compound 5, isopimpinellin]
- Activity on TAS2R14 (in words) [1]: responded
- pEC50 [1, 6]: 4.95
- TAS2R14 screening result [1]: +
- TAS2R49 screening result [2]: −
- Activity on TRPA1 (in words) [3]: agonists
- pEC50 [3]: ≤ 4.64
- TRPA1 screening result [3]: +
- TRPV1 screening result [4]: −

Structure (SMILES): CCCCCCCC(C)=O [Compound 10, 2-nonanone]
- TAS2R14 screening result [1]: −
- TAS2R49 screening result [2]: −
- TRPA1 screening result [3]: −
- TRPV1 screening result [4]: −
- Response on the twenty TAS2R receptors (in words) [5]: inactive

— PMC6331789, “Phytochemicals from Ruta graveolens Activate TAS2R Bitter Taste Receptors and TRP Channels Involved in Gustation and Nociception” (Molecules, 2015)
